Assay results: US9896445B2, “Heterocyclic inhibitors of ERK1 and ERK2 and their use in the treatment of cancer” (Asana Biosciences, LLC, priority 2015, dated 2018)

What was measured:
ERK1 = target: T1, ERK1 (Homo sapiens, UniProt P27361); assay: ERK1 HTRF (biochemical) assay
T1 construct: purchased Jubilant Biosys
Experimental: ERK1 and ERK2 HTRF (Biochemical) Assays
These assays employed a homogeneous time resolved fluorescence (HTRF) technique. […] The plate was incubated at room temperature for 60 min with shaking. […] The IC50 values (half maximal inhibitory concentration values) were subsequently determined using a sigmoidal dose-response curve (variable slope) in GraphPad Prism® 5 software.

ERK2 = target: T2, ERK2 (Homo sapiens, UniProt P28482); assay: ERK2 HTRF (biochemical) assay
T2 construct: purchased Jubilant Biosys
Outline: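 Compounds were tested as half-log dilutions from 0.0005 to 10 uM in Tris pH 7.5/MgCl2 buffer, with a substrate mix of 1 uM biotin-MBP peptide and 24 uM ATP and an enzyme mix of 25 nM ERK2. Reaction ran 60 min at room temperature. Phospho-MBP was detected by HTRF (Eu-anti-phospho-MBP/SA-APC, 665/620 nm), and IC50 was fitted with a variable-slope sigmoidal curve.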

T1 sequence (P27361 whole entry): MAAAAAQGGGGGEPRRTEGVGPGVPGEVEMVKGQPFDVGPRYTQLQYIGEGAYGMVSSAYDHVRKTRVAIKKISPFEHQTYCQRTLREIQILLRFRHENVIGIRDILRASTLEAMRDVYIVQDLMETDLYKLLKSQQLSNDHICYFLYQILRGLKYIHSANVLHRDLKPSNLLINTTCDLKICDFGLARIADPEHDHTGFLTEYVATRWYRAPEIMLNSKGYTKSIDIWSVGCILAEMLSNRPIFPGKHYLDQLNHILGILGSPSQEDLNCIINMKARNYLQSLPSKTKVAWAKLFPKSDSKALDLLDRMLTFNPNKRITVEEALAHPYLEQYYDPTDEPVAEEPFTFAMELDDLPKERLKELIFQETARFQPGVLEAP
T2 sequence (P28482 whole entry): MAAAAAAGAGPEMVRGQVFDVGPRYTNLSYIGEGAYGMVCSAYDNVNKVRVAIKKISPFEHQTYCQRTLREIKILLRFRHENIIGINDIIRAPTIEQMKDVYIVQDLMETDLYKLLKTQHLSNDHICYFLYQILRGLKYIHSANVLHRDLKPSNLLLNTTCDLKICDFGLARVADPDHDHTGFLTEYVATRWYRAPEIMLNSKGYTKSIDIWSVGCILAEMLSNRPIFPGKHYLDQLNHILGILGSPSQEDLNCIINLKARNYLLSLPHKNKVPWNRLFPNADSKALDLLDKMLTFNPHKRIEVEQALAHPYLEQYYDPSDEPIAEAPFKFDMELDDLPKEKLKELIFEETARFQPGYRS

IC50 (ERK1; HTRF) [nM] | IC50 (ERK2; HTRF) [nM] | IC50 (ERK1; HTRF biochemical assay) [nM] | IC50 (ERK2; HTRF biochemical assay) [nM] | SMILES
< 50 | ≤ 50 | – | – | Cc1cnc(Nc2ccc3c(c2)OCO3)nc1-n1cnc(C(=O)N[C@H](CO)c2cccc(Cl)c2)c1 [Compound 48, (S)-1-(2-(benzo[d][1,3]dioxol-5-ylamino)-5-methylpyrimidin-4-yl)-N-(1-(3-chloro-phenyl)-2-hydroxy-ethyl)-1H-imidazole-4-carboxamide]
100 to 500 | ≤ 50 | – | – | Cc1cnc(Nc2ccc(N3CCNCC3)cc2)cc1-n1ccc(C(=O)NC(CO)c2ccccc2)c1 (stereo not shown) [Compound 83, N-(2-hydroxy-1-phenylethyl)-1-(5-methyl-2-((4-(piperazin-1-yl)-phenyl)amino)-pyridin-4-yl)-1H-pyrrole-3-carboxamide]
– | – | < 50 | ≤ 50 | Cc1cnc(NC2CCOCC2)nc1-n1cnc(C(=O)N[C@H](CNC2CCOCC2)c2cccc(Cl)c2)c1 [Example 308, (S)-N-(1-(3-chlorophenyl)-2-((tetrahydro-2H-pyran-4-yl)amino)-ethyl)-1-(5-methyl-2-((tetrahydro-2H-pyran-4-yl)amino)-pyrimidin-4-yl)-1H-imidazole-4-carbox amide]
< 50 | ≤ 50 | – | – | Cc1cnc(Nc2ccc3c(c2)OCO3)nc1-n1cnc(C(=O)NC(CN)c2cc(F)cc(Cl)c2)c1 (stereo not shown) [Example 269, N-(2-amino-1-(3-chloro-5-fluorophenyl)ethyl)-1-(2-(benzo[d][1,3]dioxol-5-ylamino)-5-methylpyrimidin-4-yl)-1H-imidazole-4-carboxamide]
50 to 100 | ≤ 50 | – | – | O=C(NC(CO)c1cccc(Cl)c1)c1ccn(-c2ccnc(Nc3ccc(F)cc3Cl)n2)c1 (stereo not shown) [Compound 111, 1-(2-((2-chloro-4-fluorophenyl)amino)pyrimidin-4-yl)-N-(1-(3-chlorophenyl)-2-hydroxyethyl)-1H-pyrrole-3-carboxamide]
< 50 | ≤ 50 | – | – | NCC(NC(=O)c1ccn(-c2ccnc(Nc3ccc(F)cc3)c2)c1)c1ccccc1 (stereo not shown) [Compound 206, N-(2-amino-1-phenylethyl)-1-(2-((4-fluorophenyl)-amino)pyridin-4-yl)-1H-pyrrole-3-carboxamide]
– | – | < 50 | ≤ 50 | Cc1cnc(NC2CCOCC2)nc1-n1cnc(C(=O)NCc2cccc(Cl)c2F)c1 [Example 309, N-(3-chloro-2-fluorobenzyl)-1-(5-methyl-2-((tetrahydro-2H-pyran-4-yl)amino)-pyrimidin-4-yl)-1H-imidazole-4-carboxamide]
< 50 | ≤ 50 | – | – | Cc1cnc(N[C@H]2CCOC2)nc1-n1cnc(C(=O)NCc2cccc(Cl)c2CO)c1 [Example 270]
< 50 | ≤ 50 | – | – | Cc1cnc(Nc2ccc(F)cc2Cl)cc1-n1ccc(C(=O)NC(CO)c2ccccc2)c1 (stereo not shown) [Compound 78, 1-(2-((2-chloro-4-fluorophenyl)amino)-5-methylpyridin-4-yl)-N-(2-hydroxy-1-phenylethyl)-1H-pyrrole-3-carboxamide]
< 50 | ≤ 50 | – | – | Cc1cnc(NC2CCOCC2)nc1-n1cnc(C(=O)NCc2ccccc2CCO)c1 [Compound 243, N-(2-(2-hydroxy-ethyl)benzyl)-1-(5-methyl-2-((tetrahydro-2H-pyran-4-yl)amino)pyrimidin-4-yl)-1H-imidazole-4-carboxamide]
< 50 | ≤ 50 | – | – | Cc1cccc(C(CO)NC(=O)c2cn(-c3nc(NC4CCOCC4)ncc3C)cn2)c1 (stereo not shown) [Compound 238, N-(2-hydroxy-1-(m-tolyl)ethyl)-1-(5-methyl-2-((tetrahydro-2H-pyran-4-yl)amino)pyrimidin-4-yl)-1H-imidazole-4-carboxamide]
< 50 | ≤ 50 | – | – | Cc1cnc(Nc2ccc(Oc3ccccc3)cc2)nc1-n1cnc(C(=O)NC(CN)c2cccc(Cl)c2)c1 (stereo not shown) [Compound 231, N-(2-amino-1-(3-chlorophenyl)ethyl)-1-(5-methyl-2-((4-phenoxyphenyl)amino)pyrimidin-4-yl)-1H-imidazole-4-carboxamide]
< 50 | ≤ 50 | – | – | Cc1cnc(NC2CCCOC2)nc1-n1ccc(C(=O)NC(CO)c2ccccc2)c1 (stereo not shown) [Compound 141, N-(2-hydroxy-1-phenylethyl)-1-(5-methyl-2-((tetrahydro-2H-pyran-3-yl)amino)-pyrimidin-4-yl)-1H-pyrrole-3-carboxamide]
< 50 | ≤ 50 | – | – | CCC(COC)Nc1ncc(C)c(-n2ccc(C(=O)NC(CO)c3cccc(Cl)c3)c2)n1 (stereo not shown) [Compound 127, N-(1-(3-chloro-phenyl)-2-hydroxy-ethyl)-1-(2-((1-methoxybutan-2-yl)amino)-5-methylpyrimidin-4-yl)-1H-pyrrole-3-carboxamide]
< 50 | ≤ 50 | – | – | Cc1cnc(NC2CCOCC2)nc1-n1cnc(C(=O)NC(CO)c2cccs2)c1 (stereo not shown) [Compound 233, N-(2-hydroxy-1-(thiophen-2-yl)ethyl)-1-(5-methyl-2-((tetrahydro-2H-pyran-4-yl)amino)-pyrimidin-4-yl)-1H-imidazole-4-carboxamide]

Continued, compound first:

SMILES | IC50 (ERK1; HTRF) [nM] | IC50 (ERK2; HTRF) [nM] | IC50 (ERK1; HTRF biochemical assay) [nM] | IC50 (ERK2; HTRF biochemical assay) [nM]
Cc1cnc(Nc2ccc3c(c2)OCO3)nc1-n1ccc(C(=O)N[C@H](CO)Cc2ccccc2)c1 [Compound 59, (S)-1-(2-(benzo[d][1,3]dioxol-5-ylamino)-5-methylpyrimidin-4-yl)-N-(1-hydroxy-3-phenylpropan-2-yl)-1H-pyrrole-3-carboxamide] | 50 to 100 | ≤ 50 | – | –
Cc1cnc(Nc2ccc3c(c2)OCO3)nc1-n1cc(C(=O)NC(CO)c2cccc(Cl)c2)cn1 (stereo not shown) [Compound 41, 1-(2-(benzo[d][1,3]dioxol-5-ylamino)-5-methylpyrimidin-4-yl)-N-(1-(3-chloro-phenyl)-2-hydroxy-ethyl)-1H-pyrazole-4-carboxamide] | 100 to 500 | ≤ 50 | – | –
Cc1cnc(Nc2ccc3c(c2)OCO3)nc1-n1cc(NC(=O)N[C@H](CO)c2cccc(Cl)c2)cn1 [Compound 44, (S)-1-(1-(2-(benzo[d][1,3]dioxol-5-ylamino)-5-methylpyrimidin-4-yl)-1H-pyrazol-4-yl)-3-(1-(3-chloro-phenyl)-2-hydroxy-ethyl)urea] | 50 to 100 | ≤ 50 | – | –
Cc1cnc(NC2CCOCC2)nc1-n1cnc(C(=O)NC(c2cccc(Cl)c2)C(C)O)c1 (stereo not shown) [Compound 253, N-(1-(3-chlorophenyl)-2-hydroxypropyl)-1-(5-methyl-2-((tetrahydro-2H-pyran-4-yl)amino)-pyrimidin-4-yl)-1H-imidazole-4-carboxamide] | < 50 | ≤ 50 | – | –
Cc1cn(-c2ccnc(Nc3ccc(F)cc3)n2)cc1C(=O)NC(CO)c1cccc(Cl)c1 (stereo not shown) [Compound 110, N-(1-(3-chloro-phenyl)-2-hydroxyethyl)-1-(2-((4-fluorophenyl)-amino)pyrimidin-4-yl)-4-methyl-1H-pyrrole-3-carboxamide] | 50 to 100 | ≤ 50 | – | –
O=C(N[C@H](CO)c1cccc(Cl)c1)c1ccn(-c2ccnc(NC3CCOC3)c2)c1 (stereo partly drawn) [Compound 188, N-((S)-1-(3-chlorophenyl)-2-hydroxyethyl)-1-(2-((tetrahydrofuran-3-yl)amino)pyridin-4-yl)-1H-pyrrole-3-carboxamide] | 100 to 500 | 100 to 500 | – | –
Cc1cnc(NC2CCOCC2)nc1-n1cnc(C(=O)N[C@H](CNCC2CC2)c2cccc(Cl)c2)c1 [Example 339, 1-[5-Methyl-2-(tetrahydro-pyran-4-ylamino)-pyrimidin-4-yl]-1H-imidazole-4-carboxylic acid [(S)-1-(3-chloro-phenyl)-2-(cyclopropylmethyl-amino)-ethyl]-amide] | – | – | < 50 | ≤ 50
Cc1cnc(NC(CO)CO)nc1-n1ccc(C(=O)NC(CO)c2ccccc2)c1 (stereo not shown) [Compound 147, 1-(2-((1,3-dihydroxypropan-2-yl)amino)-5-methylpyrimidin-4-yl)-N-(2-hydroxy-1-phenylethyl)-1H-pyrrole-3-carboxamide] | 50 to 100 | ≤ 50 | – | –
Cc1cnc(Nc2ccc3c(c2)OCO3)cc1-n1cnc(C(=O)NC(CO)c2cccc(Cl)c2)c1 (stereo not shown) [Compound 88, 1-(2-(benzo[d][1,3]dioxol-5-ylamino)-5-methylpyridin-4-yl)-N-(1-(3-chloro-phenyl)-2-hydroxy-ethyl)-1H-imidazole-4-carboxamide] | < 50 | ≤ 50 | – | –
Cc1cnc(NC2CCOCC2)nc1-n1cnc(C(=O)NC(CO)c2cccc(C(C)(C)C)c2)c1 (stereo not shown) [Example 258, N-(1-(3-(tert-butyl)phenyl)-2-hydroxyethyl)-1-(5-methyl-2-((tetrahydro-2H-pyran-4-yl)amino)-pyrimidin-4-yl)-1H-imidazole-4-carboxamide] | < 50 | ≤ 50 | – | –
Cc1cnc(Nc2ccc(N3CCNCC3)cc2)nc1-n1ccc(C(=O)NC(CO)c2ccccc2)c1 (stereo not shown) [Compound 73, N-(2-hydroxy-1-phenylethyl)-1-(5-methyl-2-((4-(piperazin-1-yl)-phenyl)amino)pyrimidin-4-yl)-1H-pyrrole-3-carboxamide] | < 50 | ≤ 50 | – | –
COc1c(F)cccc1Nc1ncc(C)c(-n2ccc(C(=O)NC(CO)c3cccc(Cl)c3)c2)n1 (stereo not shown) [Compound 143] | < 50 | ≤ 50 | – | –
Cc1cnc(Nc2ccc(F)c(N3CCOCC3)c2)nc1-n1cnc(C(=O)NC(CN)c2cccc(Cl)c2)c1 (stereo not shown) [Example 256, N-(2-amino-1-(3-chlorophenyl)ethyl)-1-(2-((4-fluoro-3-morpholinophenyl)amino)-5-methyl-pyrimidin-4-yl)-1H-imidazole-4-carboxamide] | < 50 | ≤ 50 | – | –
Cc1cnc(N[C@H]2CCOC2)nc1-n1cnc(C(=O)NCc2cccc(Cl)c2)c1 [Example 318, (S)-N-(3-chloro-benzyl)-1-(5-methyl-2-((tetrahydrofuran-3-yl)amino)-pyrimidin-4-yl)-1H-imidazole-4-carboxamide] | – | – | < 50 | ≤ 50
